Test results reported in patent publication US7521071B2, “Formulation of oral compositions comprising arsenic trioxide and methods of use thereof” (Versitech Limited, priority 2002, dated 2009).
Marks after values point to notes of the source that are not given here.

Experiments:
[1] = test system: acute promyelocytic leukemia (APL); settings: cited from earlier work
[2] = Safety monitoring in Example 1 (ECG, complications); assay type: in vivo, human patients
Experimental: Demographic features as well as details pertaining to each patient's disease state (including laboratory findings) were recorded throughout the period of study. Their subsequent clinical progress and pertinent laboratory results were also logged. The University of Hong Kong Faculty of Medicine Ethics Committee approved the entire protocol.
The demographic features, basal arsenic concentrations, disease status, and treatment outcomes of each patient are shown in Table 2.

[3] = Oral arsenic bioavailability: plasma and whole blood arsenic AUC after IV (day 1) and oral (day 2) As2O3; assay type: in vivo, human patients
Experimental: As diets containing seafood contain arsenic, each patient was instructed to refrain from seafood, preferably for at least one week before arsenic administration. On day-1 at 10 A.M., 10 mg of a standard, commercially available IV As2O3 formulation (from Ophthalmic Laboratories, Sydney, Australia) diluted in 100 ml of Sodium Chloride 0.9% solution was infused IV over 60 minutes. At 10 A.M. on day-2 (i.e., 24 hours after the start of the IV infusion), each patient swallowed a 10 mg dose (10 ml) of our oral AS2O3 solution and none were instructed to fast before or during their treatment.
Venous blood samples were drawn (11 ml) prior to As2O3 administration on day-1 and subsequently at the following times after the beginning of the IV infusion: 1, 2, 3, 4, 6, 8, 24, 25, 26, 27, 28, 30, 32 and 48 hours. […] The plasma from the lithium-heparin tube was freshly separated and both the plasma and whole blood samples were stored at 4° C. and subsequently analyzed in batches.
Plasma and whole blood arsenic concentration were assayed after the samples were deproteinized with 3% (w/v) trichloroacetic acid and then mixed with matrix modifiers. […] Concentrations are therefore expressed as nmol/L of arsenic above basal values. […]

PML/RARA = assay: Molecular monitoring of PML/RARA (PCR) in Example 2; assay type: in vivo, human patients
Experimental: Twelve consecutive unselected patients with relapsed APL were treated with oral-As2O3 (see Table 4). The relapse was confirmed morphologically (>30% blasts+abnormal promyelocytes in the marrow) and cytogenetically (presence of t(15;17), with none of the cases showing additional karyotyic aberrations) or molecularly (presence of PML/RARA). The treatment was given with informed consent, and the protocol was approved by the University of Hong Kong Faculty of Medicine Ethics Committee.
However, PML/RARA became negative in 11 cases 3-6 months post-remission, and remained negative until the latest bone marrow examination. PCR in patient no. 1 became positive shortly before R2.

[4] = As2O3 powder; cited from earlier work
[5] = Arsenic in plasma and cellular fraction of blood at 48 hours; assay type: in vivo, human patients
Experimental: Venous blood samples were drawn (11 ml) prior to As2O3 administration on day-1 and subsequently at the following times after the beginning of the IV infusion: 1, 2, 3, 4, 6, 8, 24, 25, 26, 27, 28, 30, 32 and 48 hours. Five ml from each sample were collected in a non-gel lithium-heparin tube (for determination of plasma arsenic level) and 3 ml×2 in EDTA tubes (for determination of whole blood level). The plasma from the lithium-heparin tube was freshly separated and both the plasma and whole blood samples were stored at 4° C. and subsequently analyzed in batches.
Plasma and whole blood arsenic concentration were assayed after the samples were deproteinized with 3% (w/v) trichloroacetic acid and then mixed with matrix modifiers. The matrix modifiers contained magnesium nitrate (10 g/L), palladium chloride (6 g/L), and ammonium sulphite (20 g/L) in 0.5% Triton X 100. All chemicals were of analytical grade and were obtained from Sigma (St Louis, Mo.). The treated samples were assayed for total arsenic concentration in whole blood and plasma (which includes As2O3 per se and its metabolites) by graphite furnace atomic absorption spectrophotometry (Simma 6000, Perkin-Elmer, Norwalk, Conn.). Concentrations are therefore expressed as nmol/L of arsenic above basal values. The between-day coefficient of variation of this method was 7.5-9.6% for arsenic concentrations varying from 559 to 2169 nmol/L. The accuracy of this method was assessed by spiking known amounts of arsenic into patient samples; recovery being 97.3-101.3% for concentrations varying from 301 to 678 nmol/L.
The concentration of arsenic in the cellular fraction of blood (Cc) at 48 hours after the initial intravenous dose was calculated from the corresponding plasma (Cp) and whole blood (Cb) concentrations and the prevailing hematocrit (Hct) value as follows:
Nano mols of arsenic in the plasma from 1 liter of blood=Cp(1-Hct).
Accordingly, the mass of arsenic in the remaining cellular fraction in 1 liter of blood amounts to Cb-[Cp(1-Hct)].
Thus, the concentration (weight/volume) of arsenic per liter of the cellular fraction of the blood Cc={Cb-[Cp(1-Hct)]}/Hct.

Row | Compound | efficacy in APL ([1]; oral, Lu et al. Blood 2002) | abnormal QTc prolongation on regularly performed ECGs ([2]; all nine patients receiving As2O3) | unexpected complications ([2]; nine patients) | inter-individual variation in plasma AUCs among the nine patients ([3]; plasma) | inter-individual variation in whole blood AUCs among the nine patients ([3]; whole blood) | cases in which PML/RARA became negative (PML/RARA; 3-6 months post-remission, of 12 patients) | PML/RARA after As2O3-induced CR (PML/RARA; all patients) | solubility in cold water [4] | Cellular Conc (Cc), Mean ([5]; 48 hours, mean of 9 patients) | Plasma Conc (Cp), Mean ([5]; 48 hours, mean of 9 patients) | Difference, Mean ([5]; 48 hours, mean of 9 patients, p = 0.013 two tailed paired t-test) | 48-hour concentrations in the cellular fraction of blood higher than corresponding plasma concentrations ([5]; except in patient no 1) | 48-hour blood cell arsenic levels greater than in plasma ([5]; on average, p=0.013) | remissions induced in APL patients ([1]; literature (Shen 1997, Soignet 1998, Niu 1999))
1 | S1[As]2S[As]3S[As]2S[As]13 [tetra-arsenic tetra-sulphide] | highly efficacious in APL | – | – | – | – | – | – | – | – | – | – | – | – | –
2 | arsenic trioxide [As2O3] | – | no instance of abnormal QTc prolongation | No patient suffered unexpected complications | ≤ 5 fold | ≤ 10 fold | 11 cases | remained positive in all patients | sparingly and extremely slowly soluble | 286 nM/L | 85 nM/L | 201* nM/L | 2 to 3 fold | 270% | over 90%
